Measurements: US9073855B2, “BCL-2 selective apoptosis-inducing agents for the treatment of cancer and immune diseases” (AbbVie Inc., priority 2008, dated 2015)
pEC50, pKi: −log10 of the molar value.

How the values were obtained:
GST-Bcl-2 = GST-Bcl-2 (Homo sapiens, UniProt P10415); assay: TR-FRET binding assay, GST-Bcl-2 with F-Bak peptide probe; conditions: TR-FRET Binding Affinity, GST-Bcl-2, F-Bak peptide probe
How it was run: (§1)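 Ki was derived with Wang's equation for competitive binding of two ligands. The read-out was time-resolved fluorescence after a 3 h room-temperature incubation, using a Tb-labelled antibody donor and the F-Bak peptide acceptor (excitation 340/35 nm). Test compounds entered as DMSO serial dilutions starting at 50 μM, which was the 2× concentration.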

GST-Bcl-XL = GST-Bcl-XL (Homo sapiens, UniProt Q07817); assay: TR-FRET binding assay, GST-Bcl-XL with F-Bak peptide probe; conditions: TR-FRET Binding Affinity, GST-Bcl-XL, F-Bak peptide probe
Sequence of GST-Bcl-XL (Q07817 whole entry): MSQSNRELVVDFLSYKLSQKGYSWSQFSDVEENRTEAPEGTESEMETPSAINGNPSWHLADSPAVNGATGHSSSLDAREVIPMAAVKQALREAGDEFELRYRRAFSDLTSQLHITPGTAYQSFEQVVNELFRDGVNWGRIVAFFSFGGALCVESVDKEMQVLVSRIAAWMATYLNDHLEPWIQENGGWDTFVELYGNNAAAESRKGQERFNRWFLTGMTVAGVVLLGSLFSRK
How it was run: as §1

FL5.12/Bcl-2 cells = assay: FL5.12/Bcl-2 cell viability assay under IL-3 withdrawal (CellTitre Glo); format: cell-based, murine; conditions: Mus musculus, IL-3 withdrawn 48 hrs, then 24 hrs with compound
Description: FL5.12 is an IL-3 dependent prolymphocytic murine cell line that undergoes apoptosis upon IL-3 withdrawal as a result of the upregulation of pro-apoptotic Bcl-2 proteins such as Bim and Puma. Stable overexpression of anti-apoptotic Bcl-2 protein (FL5.12/Bcl-2) protects against apoptosis induced by IL-3 withdrawal by sequestration of Bim and Puma. […] The ability of compounds to kill FL5.12/Bcl-2 cells upon IL-3 withdrawal is a direct measure of the compounds' ability to inhibit anti-apoptotic Bcl-2 protein function.
Wild type FL5.12/Bcl-2 overexpressing stable transfectants were cultured in RPMI-1640 supplemented with 2 mM L-glutamine, 10% FBS, 1 mM sodium pyruvate, 2 mM HEPES, 1% penicillin/streptomycin (Invitrogen), 57 μM β-ME, and 10% WEHI-3B conditioned medium (source of IL-3) and maintained at 37° C. containing 5% CO2. 1×10^6 cells/ml were washed 1×PBS and resuspended in medium not supplemented with 10% WEHI-3B for 48 hrs prior to cytotoxicity assays. Cells were then treated for an additional 24 hrs in the presence of various concentrations of the indicated compounds. Cell viability was assessed by CellTitre Glo assay (Promega Corp.) according to the manufacturer's recommendations.

Sequence of GST-Bcl-2 (P10415 whole entry): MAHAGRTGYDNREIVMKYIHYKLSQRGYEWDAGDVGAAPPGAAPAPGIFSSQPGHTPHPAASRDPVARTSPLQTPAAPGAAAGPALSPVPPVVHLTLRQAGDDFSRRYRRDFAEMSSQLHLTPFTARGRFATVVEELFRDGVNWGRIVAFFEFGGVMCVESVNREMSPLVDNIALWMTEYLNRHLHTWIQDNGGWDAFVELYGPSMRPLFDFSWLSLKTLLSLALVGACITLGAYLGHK

| SMILES | pKi (GST-Bcl-2) | pKi (GST-Bcl-XL) | pEC50 (FL5.12/Bcl-2 cells) |
| --- | --- | --- | --- |
| CN1CCC(Nc2ccc(S(=O)(=O)NC(=O)c3ccc(N4CCN(CC5=C(c6ccc(Cl)cc6)CC(C)(C)CC5)C(CO)C4)cc3Oc3ccc4[nH]ccc4c3)cc2[N+](=O)[O-])CC1 (stereo not shown) [Example 218, 4-[4-{[2-(4-chlorophenyl)-4,4-dimethylcyclohex-1-en-1-yl]methyl}-3-(hydroxymethyl)piperazin-1-yl]-2-(1H-indol-5-yloxy)-N-({4-[(1-methylpiperidin-4-yl)amino]-3-nitrophenyl}sulfonyl)benzamide] | 9.88 | 7.01 | 7.48 |
| CC1(C)CCC(CN2CCN(c3ccc(C(=O)NS(=O)(=O)c4ccc(NC5CCN(CC6CC6)CC5)c([N+](=O)[O-])c4)c(Oc4ccc5[nH]ccc5c4)c3)CC2)=C(c2ccc(Cl)cc2)C1 [Example 214, 4-(4-{[2-(4-chlorophenyl)-4,4-dimethylcyclohex-1-en-1-yl]methyl}piperazin-1-yl)-N-[(4-{[1-(cyclopropylmethyl)piperidin-4-yl]amino}-3-nitrophenyl)sulfonyl]-2-(1H-indol-5-yloxy)benzamide] | 10.09 | 7.19 | 7.80 |
| CC(C1=C(c2ccc(Cl)cc2)CC(C)(C)CC1)N1CCN(c2ccc(C(=O)NS(=O)(=O)c3ccc(NC4CCN(C5CCOCC5)CC4)c([N+](=O)[O-])c3)c(Oc3ccc4[nH]ccc4c3)c2)CC1 (stereo not shown) [Example 258, 4-(4-{1-[2-(4-chlorophenyl)-4,4-dimethylcyclohex-1-en-1-yl]ethyl}piperazin-1-yl)-2-(1H-indol-5-yloxy)-N-({3-nitro-4-[(1-tetrahydro-2H-pyran-4-ylpiperidin-4-yl)amino]phenyl}sulfonyl)benzamide] | 10.32 | 8.39 | 8.04 |
| CC1(C)CCC(CN2CCN(c3ccc(C(=O)NS(=O)(=O)c4ccc(NC[C@H]5CCCO5)c([N+](=O)[O-])c4)c(Oc4ccc5[nH]ccc5c4)c3)CC2)=C(c2ccc(Cl)cc2)C1 [Example 370, 4-(4-{[2-(4-chlorophenyl)-4,4-dimethylcyclohex-1-en-1-yl]methyl}piperazin-1-yl)-2-(1H-indol-5-yloxy)-N-[(3-nitro-4-{[(2R)-tetrahydrofuran-2-ylmethyl]amino}phenyl)sulfonyl]benzamide] | 9.04 | < 6.18 | 6.58 |
| CC1(C)CCC(CN2CCN(c3ccc(C(=O)NS(=O)(=O)c4ccc(OCC5(F)CCOCC5)c([N+](=O)[O-])c4)c(Oc4ccc5[nH]ccc5c4)c3)CC2)=C(c2ccc(Cl)cc2)C1 [Example 327, 4-(4-{[2-(4-chlorophenyl)-4,4-dimethylcyclohex-1-en-1-yl]methyl}piperazin-1-yl)-N-({4-[(4-fluorotetrahydro-2H-pyran-4-yl)methoxy]-3-nitrophenyl}sulfonyl)-2-(1H-indol-5-yloxy)benzamide] | 10.51 | 7.02 | 8.18 |
| CNc1ccc(S(=O)(=O)NC(=O)c2ccc(N3CCN(CC4=C(c5ccc(Cl)cc5)CC(C)(C)CC4)CC3)cc2Oc2ccc3[nH]ccc3c2)cc1S(=O)(=O)C(F)(F)F [Example 328, 4-(4-{[2-(4-chlorophenyl)-4,4-dimethylcyclohex-1-en-1-yl]methyl}piperazin-1-yl)-2-(1H-indol-5-yloxy)-N-({4-(methylamino)-3-[(trifluoromethyl)sulfonyl]phenyl}sulfonyl)benzamide] | 8.73 | < 6.18 | < 6.30 |
| CC1(C)CCC(CN2CCN(c3ccc(C(=O)NS(=O)(=O)c4ccc(NCC5CCOCC5)c([N+](=O)[O-])c4)c(Oc4cccc5[nH]ncc45)c3)CC2)=C(c2ccc(Cl)cc2)C1 [Example 400, 4-(4-{[2-(4-chlorophenyl)-4,4-dimethylcyclohex-1-en-1-yl]methyl}piperazin-1-yl)-2-(1H-indazol-4-yloxy)-N-({3-nitro-4-[(tetrahydro-2H-pyran-4-ylmethyl)amino]phenyl}sulfonyl)benzamide] | > 11.00 | 7.44 | 8.07 |
| CC(c1ccccc1-c1ccc(Cl)cc1)N1CCN(c2ccc(C(=O)NS(=O)(=O)c3ccc(NCCCN4CCOCC4)c([N+](=O)[O-])c3)c(Oc3cccc4[nH]ccc34)c2)CC1 (stereo not shown) [Example 247, 4-{4-[1-(4′-chloro-1,1′-biphenyl-2-yl)ethyl]piperazin-1-yl}-2-(1H-indol-4-yloxy)-N-({4-[(3-morpholin-4-ylpropyl)amino]-3-nitrophenyl}sulfonyl)benzamide] | 9.73 | 7.56 | 7.79 |
| CC1(C)CCC(CN2CCN(c3ccc(C(=O)NS(=O)(=O)c4ccc(S(C)(=O)=O)cc4)c(Oc4cccc5[nH]ccc45)c3)CC2)=C(c2ccc(Cl)cc2)C1 [Example 383, 4-(4-{[2-(4-chlorophenyl)-4,4-dimethylcyclohex-1-en-1-yl]methyl}piperazin-1-yl)-2-(1H-indol-4-yloxy)-N-{[4-(methylsulfonyl)phenyl]sulfonyl}benzamide] | 8.66 | < 6.18 | < 6.30 |
| CC1(C)CCC(CN2CCN(c3ccc(C(=O)NS(=O)(=O)c4ccc(NCC5(N)CCCCC5)c([N+](=O)[O-])c4)c(Oc4ccc5[nH]ccc5c4)c3)CC2)=C(c2ccc(Cl)cc2)C1 [Example 250, N-[(4-{[(1-aminocyclohexyl)methyl]amino}-3-nitrophenyl)sulfonyl]-4-(4-{[2-(4-chlorophenyl)-4,4-dimethylcyclohex-1-en-1-yl]methyl}piperazin-1-yl)-2-(1H-indol-5-yloxy)benzamide] | 9.58 | 6.67 | 7.10 |
| CC1(C)CCC(CN2CCN(c3ccc(C(=O)NS(=O)(=O)c4ccc(NN5CCCCC5)c([N+](=O)[O-])c4)c(Oc4cccc5[nH]ccc45)c3)CC2)=C(c2ccc(Cl)cc2)C1 [Example 283, 4-(4-{[2-(4-chlorophenyl)-4,4-dimethylcyclohex-1-en-1-yl]methyl}piperazin-1-yl)-2-(1H-indol-4-yloxy)-N-{[3-nitro-4-(piperidin-1-ylamino)phenyl]sulfonyl}benzamide] | 7.32 | < 6.18 | < 6.30 |
| O=C(NS(=O)(=O)c1ccc(NCC2CCOCC2)c([N+](=O)[O-])c1)c1ccc(N2CCN(Cc3cc(OCCO)ccc3-c3ccc(Cl)cc3)CC2)cc1Oc1cccc2[nH]ccc12 [Example 213, 4-(4-{[4′-chloro-4-(2-hydroxyethoxy)-1,1′-biphenyl-2-yl]methyl}piperazin-1-yl)-2-(1H-indol-4-yloxy)-N-({3-nitro-4-[(tetrahydro-2H-pyran-4-ylmethyl)amino]phenyl}sulfonyl)benzamide] | > 11.00 | < 6.18 | 6.36 |
| CC1(C)CCC(CN2CCN(c3ccc(C(=O)NS(=O)(=O)c4cnc(OCC5CCOCC5)c(Br)c4)c(Oc4cccc5[nH]ccc45)c3)CC2)=C(c2ccc(Cl)cc2)C1 [Example 364, N-{[5-bromo-6-(tetrahydro-2H-pyran-4-ylmethoxy)pyridin-3-yl]sulfonyl}-4-(4-{[2-(4-chlorophenyl)-4,4-dimethylcyclohex-1-en-1-yl]methyl}piperazin-1-yl)-2-(1H-indol-4-yloxy)benzamide] | 11.22 | 7.12 | 6.73 |
| CC1(C)CCC(CN2CCN(c3ccc(C(=O)NS(=O)(=O)c4ccc(NCC(F)F)c([N+](=O)[O-])c4)c(Oc4ccc5[nH]ccc5c4)c3)CC2)=C(c2ccc(Cl)cc2)C1 [Example 302, 4-(4-{[2-(4-chlorophenyl)-4,4-dimethylcyclohex-1-en-1-yl]methyl}piperazin-1-yl)-N-({4-[(2,2-difluoroethyl)amino]-3-nitrophenyl}sulfonyl)-2-(1H-indol-5-yloxy)benzamide] | 9.30 | < 6.18 | 7.49 |
| CC1(C)CCC(CN2CCN(c3ccc(C(=O)NS(=O)(=O)c4ccc(NCCOC(F)(F)F)c([N+](=O)[O-])c4)c(Oc4ccc5[nH]ccc5c4)c3)CC2)=C(c2ccc(Cl)cc2)C1 [Example 300, 4-(4-{[2-(4-chlorophenyl)-4,4-dimethylcyclohex-1-en-1-yl]methyl}piperazin-1-yl)-2-(1H-indol-5-yloxy)-N-[(3-nitro-4-{[2-(trifluoromethoxy)ethyl]amino}phenyl)sulfonyl]benzamide] | – | < 6.18 | 7.21 |
| CC1(C)CCC(CN2CCN(c3ccc(C(=O)NS(=O)(=O)c4ccc(NCC5CCCOC5)c([N+](=O)[O-])c4)c(Oc4ccc5[nH]ccc5c4)c3)CC2)=C(c2ccc(Cl)cc2)C1 (stereo not shown) [Example 261, 4-(4-{[2-(4-chlorophenyl)-4,4-dimethylcyclohex-1-en-1-yl]methyl}piperazin-1-yl)-2-(1H-indol-5-yloxy)-N-({3-nitro-4-[(tetrahydro-2H-pyran-3-ylmethyl)amino]phenyl}sulfonyl)benzamide] | – | < 6.18 | 7.77 |
